Molecular target: human GlyT1c transporter (Homo sapiens (Human), UniProt P48067)
Test: Radioligand binding assay using recombinant CHO cell membranes expressing human GlyT1
Conditions: read-out: radioligand binding Kiapp
Method: 2. Radioligand binding assays using recombinant CHO cell membranes expressing human GlyT1:
Radioligand binding to human GlyT1c transporter-expressing membranes was determined as described in Mezler et al., Molecular Pharmacology 74:1705-1715, 2008.

Chain of human GlyT1c transporter (P48067 whole entry): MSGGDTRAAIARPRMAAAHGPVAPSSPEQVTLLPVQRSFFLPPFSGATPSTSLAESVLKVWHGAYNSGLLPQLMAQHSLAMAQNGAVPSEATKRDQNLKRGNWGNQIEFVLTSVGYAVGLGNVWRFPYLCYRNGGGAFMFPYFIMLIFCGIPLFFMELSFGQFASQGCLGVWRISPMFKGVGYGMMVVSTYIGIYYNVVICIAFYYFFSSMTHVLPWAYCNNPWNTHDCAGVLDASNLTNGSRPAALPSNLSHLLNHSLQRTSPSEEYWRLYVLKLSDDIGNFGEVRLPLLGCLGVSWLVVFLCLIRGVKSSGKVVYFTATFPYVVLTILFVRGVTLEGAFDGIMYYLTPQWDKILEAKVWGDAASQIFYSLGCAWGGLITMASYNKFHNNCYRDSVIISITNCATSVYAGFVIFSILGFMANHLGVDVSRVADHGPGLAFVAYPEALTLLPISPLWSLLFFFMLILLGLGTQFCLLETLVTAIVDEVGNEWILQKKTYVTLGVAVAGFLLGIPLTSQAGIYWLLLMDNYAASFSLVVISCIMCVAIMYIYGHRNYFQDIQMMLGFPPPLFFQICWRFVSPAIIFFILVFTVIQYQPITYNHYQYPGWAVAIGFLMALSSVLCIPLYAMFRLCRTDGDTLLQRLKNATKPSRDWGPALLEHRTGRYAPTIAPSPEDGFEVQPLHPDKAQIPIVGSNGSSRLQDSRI

Structure (SMILES) | Ki [µM]
Cn1cc(S(=O)(=O)N2CCc3ccc(C(CN)Cc4ccccc4)cc3C2)cn1 (centres unmarked) [Example 2, 2-(2-(1-Methyl-1H-pyrazol-4-ylsulfonyl)-1,2,3,4-tetrahydroisoquinolin-7-yl)-3-phenylpropan-1-amine] | ≤ 10
Cn1cnc(S(=O)(=O)N2CCc3ccc(C(CN)Cc4ccccc4)cc3C2)c1 (centres unmarked) [Example 1, 2-(2-(1-Methyl-1H-imidazol-4-ylsulfonyl)-1,2,3,4-tetrahydroisoquinolin-7-yl)-3-phenylpropan-1-amine] | ≤ 10

Source: US9045459B2, “Phenalkylamine derivatives, pharmaceutical compositions containing them, and their use in therapy” (AbbVie Deutschland GmbH & Co. KG, priority 2010, dated 2015)
